In publication PMC7392643, “Antibiotic fidaxomicin is an RdRp inhibitor as a potential new therapeutic agent against Zika virus” (BMC Medicine, 2020):
Entries after “also recorded” stand apart in the source; their conditions may differ.

Tests used:
ZIKV ZG-01 strain [1] = assay: In vitro antiviral assay, plaque assay, ZIKV ZG-01
Protocol: (§1) The anti-ZIKV activity of fidaxomicin and ribavirin was evaluated in vitro by plaque assay. Various cell lines, including SNB19 (6 × 10^4/well, 10% FBS DMEM), A172 (7 × 10^4/well, 10% FBS DMEM), Vero (6 × 10^4/well 10% FBS DMEM), Huh7 (7 × 10^4/well, 10% FBS DMEM), HUVECs (7 × 10^4/well, 15% FBS M199 medium supplemented with 2 mM L-glutamine, 0.02 mg/mL endothelial cell growth supplement, and 0.05 mg/mL heparin), and A549 (6 × 10^4/well, 5% FBS DMEM), were plated in 12-well plates and allowed to attach overnight, followed by infection with ZIKV (ZG-01 strain or MR766 strain, respectively, at indicated MOI) in the presence of different concentrations of fidaxomicin, ribavirin, or vehicle control for 1 h, followed by two washes with 1 × PBS and incubated with fresh medium (without virus) consisting of corresponding concentrations of the compounds for further 48 h. The cell supernatants were collected to quantify ZIKV infection by plaque assay as previously described or by RT-qPCR. […] The anti-DENV activity of fidaxomicin was evaluated in vitro by RT-qPCR.

ZIKV ZG-01 strain [2] = assay: In vitro antiviral assay, RT-qPCR, ZIKV ZG-01; format: cell-based; settings: Zika virus
Protocol: as §1
(§2) RNA from cell supernatants or from mouse tissues (brain and testis) was prepared with RaPure Viral RNA/DNA Kit (Magen, Guangzhou, China) according to the manufacturer’s instructions. The first-strand cDNA was synthesized using random hexamer primers with the Revert Aid Reverse Transcription Kit (Thermo Fisher Scientific, Rockford, IL, USA), and real-time PCR was carried out by using LightCycler® 480 Probes Master (2× reaction mix buffer including DNA polymerase) (no. 04887301001, Roche, Basel, Switzerland). Virus concentration was determined by interpolation onto an internal standard curve made up of a 7-point dilution series of in vitro transcribed RNA and tissue weight to quantify ZIKV RNA as copies/gram tissue. Primer sets used for real-time PCR are shown in Additional file 1: Table S1. Reverse transcription and real-time PCR were performed for at least three times.

ZIKV (ZG-01 strain) = assay: Antiviral efficacy in ZIKV-infected Ifnar1-/- mice, i.v. dosing; format: in vivo; settings: for Median survival: vehicle 8.5 days
Protocol: as §2
For ZIKV infection and antiviral treatment studies, mice were randomly assigned to groups (n = 12–13/group). Male and female 5-week-old Ifnar1^−/− mice were infected subcutaneously (s.c.) with ZIKV (ZG-01 strain, 2 × 10^4 PFU for each mouse) 1 h before administration of treatment agents. Compounds were prepared in sterile pharmaceutical dosage form of 1:10:89 (DMSO : Tween80 : 5% glucose solution) less than 4 h prior to administration in mice. Fidaxomicin was administered by tail vein injection daily at 20 or 10 mg/kg for 7 days. The identity of the treatment groups was blinded to the researcher administering treatments. Survival, disease signs, and the weight of each mouse were recorded on day 0 and then every other day from 1 to 15 days post-infection (dpi). Mice were humanely euthanized if they could no longer right themselves or were unresponsive to stimuli. Tissues, including the brains and testes, were collected from each animal. Part of each tissue was fixed in 4% paraformaldehyde or in PBS for at least 24 h prior to paraffin embedding and sectioning for use in immunohistochemistry analysis, immunofluorescence analysis, or analysis of viral RNA. Total RNA was extracted from tissues, and ZIKV RNA was quantified as described above.
Immunofluorescence assay was carried out on paraffin-embedded mouse brain and testis tissue slides, incubated with an anti-ZIKV E antibody (1:500, BioFront Technologies, Tallahassee, FL, USA). The secondary antibody was Rhodamine Red™-X (RRX) AffiniPure F (ab')2 Fragment Goat Anti-Mouse IgG (1:500, AB_2338781, Jackson ImmunoResearch Laboratories, Inc. West Grove, PA, USA), and 4-,6-diamidino-2-phenylindole (DAPI, 1:1000, Sangon Biotech, Shanghai, China) was used to stain the nuclei. The immunofluorescent images were taken with an inverted microscope (Carl Zeiss, Oberkochen, Germany). For histologic staining, the fixed tissues were dehydrated, embedded in paraffin, sectioned, rehydrated, and stained with hematoxylin and eosin (H/E). The H/E-stained sections were evaluated for viral-induced neuropathology. […] histological examination was performed by a board-certified veterinary pathologist. Each slide was auto scanned by Axio Scan Z1 (Carl Zeiss, Oberkochen, Germany).

ZIKV = assay: Oral administration test in ZIKV-infected mice; format: in vivo; settings: 225 mg/kg, vs vehicle
Protocol: Fig. S4. Oral administration test for the antiviral efficacy of fidaxomicin in vivo. a Schematic illustration of the animal experimental design for the oral administration test (n=10 animals per group). b Kaplan–Meier survival of ZIKV-infected mice treated with fidaxomicin at the dosage of 225mg/kg. c Body weight changes were recorded daily for ZIKV-infected mice treated with fidaxomicin at the dosage of 225mg/kg or with control delivery vehicle. d Tissue viral loads in the brains of ZIKV-infected mice were determined by RT-qPCR (P value, compared to vehicle control).

CCc1c(Cl)c(O)c(Cl)c(O)c1C(=O)O[C@H]1[C@H](O)[C@H](OC)[C@H](OC/C2=C\C=C\C[C@H](O)/C(C)=C/[C@H](CC)[C@@H](O[C@@H]3OC(C)(C)[C@@H](OC(=O)C(C)C)[C@H](O)[C@@H]3O)/C(C)=C/C(C)=C/C[C@@H]([C@@H](C)O)OC2=O)O[C@@H]1C [Fidaxomicin]
EC50 lower than that of ribavirin (ZIKV ZG-01 strain [1]; SNB19 cells): 10 fold
concentration above which ZIKV infection was completely undetectable (ZIKV ZG-01 strain [1]; SNB19 cells, plaque assay): exceeded 18 μM
EC90 (ZIKV ZG-01 strain [1]; SNB19 cells, plaque assay, 48 h): 8.9 ± 0.6 µM
EC50 (ZIKV ZG-01 strain [1]; Zika virus, A549, 48 h): 12.2 ± 3.6 µM
EC90 (ZIKV ZG-01 strain [1]; Zika virus, A549, 48 h, A549 cells, plaque assay, 48 h): 39.5 ± 4.8 µM
EC50 (ZIKV ZG-01 strain [1]; Zika virus, Huh-7, 48 h): 7.7 ± 1.7 µM
EC90 (ZIKV ZG-01 strain [1]; Zika virus, Huh-7, 48 h, Huh7 cells, plaque assay, 48 h): 17.8 ± 3.5 µM
EC50 (ZIKV ZG-01 strain [1]; Zika virus, SNB-19, 48 h): 6 ± 1 µM
EC90 (ZIKV ZG-01 strain [1]; Zika virus, SNB-19, 48 h, SNB19 cells, plaque assay, 48 h): ~9 µM
EC50 (ZIKV ZG-01 strain [1]; Zika virus, Vero, 48 h): 11.7 ± 2.1 µM
EC90 (ZIKV ZG-01 strain [1]; Zika virus, Vero, 48 h, Vero cells, plaque assay): 48.2 ± 5.3 µM
EC50 (ZIKV ZG-01 strain [2]; A 172, A172 cells, viral RNA copy number by RT-qPCR): 8.8 ± 1.9 µM
EC90 (ZIKV ZG-01 strain [2]; A 172, A172 cells, viral RNA copy number by RT-qPCR, read-out: EC90): 11.8 ± 1.4 µM
EC90 (ZIKV ZG-01 strain [2]; HUVEC): 23.2 ± 3 µM
EC50 (ZIKV ZG-01 strain [2]; HUVEC, HUVECs, viral RNA copy number by RT-qPCR): 14.5 ± 1.2 µM
EC50 (ZIKV ZG-01 strain [2]; Huh-7, Huh7 cells, viral RNA copy number by RT-qPCR): 11.1 ± 1.6 µM
EC90 (ZIKV ZG-01 strain [2]; Huh-7, Huh7 cells, viral RNA copy number by RT-qPCR, read-out: EC90): 21.6 ± 1 µM
EC50 (ZIKV ZG-01 strain [2]; SNB-19, SNB19 cells, viral RNA copy number by RT-qPCR): 9.2 ± 2.4 µM
EC90 (ZIKV ZG-01 strain [2]; SNB-19, SNB19 cells, viral RNA copy number by RT-qPCR, read-out: EC90): 17.3 ± 4.8 µM
EC50 (ZIKV ZG-01 strain [2]; A549 cells, viral RNA copy number by RT-qPCR): 13 ± 3.3 µM
EC90 (ZIKV ZG-01 strain [2]; A549 cells, viral RNA copy number by RT-qPCR, read-out: EC90): 17.8 ± 5.3 µM
EC50 (ZIKV ZG-01 strain [2]; Vero cells, viral RNA copy number by RT-qPCR): 12.5 ± 2.2 µM
EC90 (ZIKV ZG-01 strain [2]; Vero cells, viral RNA copy number by RT-qPCR, read-out: EC90): 52.1 ± 5.5 µM
Median survival (ZIKV (ZG-01 strain); 10 mg/kg i.v. daily for 7 days): 14 days
Median survival (ZIKV (ZG-01 strain); 20 mg/kg i.v. daily for 7 days): over 15 days
body weight loss (ZIKV (ZG-01 strain); 20 mg/kg/day, between 8 and 15 dpi, vs vehicle): obvious protection from weight loss
ZIKV load in the brains and testes (immunostaining of ZIKV E) (ZIKV (ZG-01 strain); 10 and 20 mg/kg vs vehicle): reduced
viral RNA levels in the brain and testis (ZIKV (ZG-01 strain); 15 dpi, 10 and 20 mg/kg groups, RT-qPCR): significantly decreased
neuronal necrosis in hippocampal pyramidal cells (ZIKV (ZG-01 strain); H/E staining): remarkably reduced
pathologic damages in the cerebra (ZIKV (ZG-01 strain); both treatment groups vs vehicle, H/E staining): remarkably alleviated
number of neurological signs (paralysis, hunching) (ZIKV (ZG-01 strain); both treatment groups, dose-dependent): progressive decrease
perivascular cuffing of vessels in cerebra (ZIKV (ZG-01 strain); both treatment groups, p = 0.0090 and p < 0.0001): significant decrease
mice protected from mortality (ZIKV (ZG-01 strain); high-dose group (20 mg/kg i.v. daily for 7 days)): nine out of 13
effective therapeutic doses against ZIKV (ZIKV (ZG-01 strain); mice, i.v.): 10 to 20 mg/kg
ZIKV E protein in brain and testis tissues (western blotting) (ZIKV (ZG-01 strain); vs vehicle control): significant suppressive effect
outcome of ZIKV-infected mice after oral administration (ZIKV): did not improve the outcome; also recorded: only weakly antagonizes
